The values that follow come from PubChem BioAssay AID1645848.

What is called solubility (kinetic) is solubility judged after dilution from a stock solution rather than from solid.

In brackets after ≈: the same amount, converted by molar mass.

The conditions of the data set: buffer; pH 7.4; 6.0 h; 150.0 µM.

On to `CCOC(=O)c1ccc(-n2c(C)cc(-c3nnc4n3CCCCC4)c2C)cc1`, for which the solubility (kinetic) is more than 56 µg/mL.

The molecule `N=c1c2ccccc2nnn1-c1ccc(C(F)(F)F)cc1` came in with a kinetic solubility of less than 1 µg/mL.

Molecule `COc1ccc(/C=C2/C(=O)Nc3ccccc32)cc1O` yielded a kinetic solubility of 29.2 µg/mL (≈ 109 µM).

Turning to `COc1ccc(C2Nc3ccccc3C(=O)N2Cc2ccco2)cc1` (stereo not given), the kinetic solubility is 12.2 µg/mL (≈ 36.4 µM).

Turning to `O=C1CCCC2=C1C(c1ccccc1I)N=C(Nc1nc3ccccc3o1)N2` (stereo not given), the kinetic solubility is less than 1 µg/mL.

With `O=C(NCC1CCN(Cc2cccc(Cl)c2)CC1)Nc1ccc(F)c(Cl)c1`, the solubility (kinetic) stood at 25.1 µg/mL (≈ 61.3 µM).

`CCOc1ccc(CCNC(=O)c2cc3ccccc3n2Cc2cc(C)cc(C)n2)cc1OCC`: the solubility (kinetic) is less than 1 µg/mL.

As to `CCOc1ccc(N2CC(c3nc(-c4cc(OC)c(OC)c(OC)c4)no3)CC2=O)cc1` (stereo not given), the kinetic solubility amounted to 2.38 µg/mL (≈ 5.41 µM).

With `C[S+](=O)([O-])c1ccc(-c2nc(C(=O)N3CCOCC3)n3ccccc23)cc1`, the kinetic solubility was more than 57 µg/mL.

Molecule `CC(=O)Nc1nc(C)c(-c2ccc(Cl)c(S(=O)(=O)NCCO)c2)s1` registered a solubility (kinetic) of more than 57 µg/mL.

`Oc1ccc(Nc2nc(-c3ccncc3)nc3ccccc23)cc1F` displayed a solubility (kinetic) of less than 1 µg/mL.

Consider `O=c1cc(-c2nc(Nc3ccc(F)c(F)c3)c3ccccc3n2)cc[nH]1`, for which the kinetic solubility was 11.9 µg/mL (≈ 34.1 µM).

As for `CCCN1C(CC(C)C)=NS(=O)(=O)c2cc(NC(=O)c3ccco3)ccc21`, the kinetic solubility is less than 1 µg/mL.

In turn, `CC(=O)Nc1cc(-c2nc(Nc3ccc(F)c(F)c3)c3ccccc3n2)ccn1` showed a solubility (kinetic) of less than 1 µg/mL.

Consider `C=Cc1ccc(C(=O)N2CCCC(CCC(=O)N3CCN(c4ccccn4)CC3)C2)cc1` (stereo not given), for which the solubility (kinetic) was more than 64 µg/mL.

In turn, `Cc1ccc(-c2cc3c(nn2)-c2ccccc2C3=O)cc1` came in with a kinetic solubility of less than 1 µg/mL.

In turn, `O=C(Nc1ncc(Cc2ccc(C(F)(F)F)cc2)s1)c1ccc(-c2ccc([N+](=O)[O-])cc2)o1` yielded a solubility (kinetic) of less than 1 µg/mL.

Molecule `Cc1ccc(-c2nnc(N3CCC(C(N)=O)CC3)s2)cc1` yielded a kinetic solubility of 14.6 µg/mL (≈ 48.3 µM).

Take `COc1ccc(NC(=O)c2[nH]c(C)c(C(C)=O)c2C)cc1S(=O)(=O)Nc1cccc(C#N)c1`: the solubility (kinetic) stood at 2.28 µg/mL (≈ 4.9 µM).

`Cc1ccc(C)n1-c1cccc(C(=O)O)c1` registered a kinetic solubility of more than 32 µg/mL.

The molecule `O=S(=O)(Nc1nccs1)c1ccc(NCc2cccc(Br)c2O)cc1` returned a solubility (kinetic) of 36.3 µg/mL (≈ 82.5 µM).

With `O=C(Nc1cc(Cc2ccccc2)ccn1)c1ccc(-c2cccc([N+](=O)[O-])c2)o1`, the kinetic solubility was less than 1 µg/mL.

Take `COc1ccc(-c2cc(C(F)(F)F)nc(SCCC(=O)Nc3cc(C)ccc3O)n2)cc1`: the solubility (kinetic) is less than 1 µg/mL.

For the molecule `CCn1c(C)c(C(C)=O)c(C)c1C(=O)Nc1cccc([S+](=O)([O-])N(C)C)c1`, the solubility (kinetic) worked out at 43.4 µg/mL (≈ 111 µM).

Take `Cc1ccc([S+](=O)([O-])n2cc(Cc3ccc(-c4ccccc4)cc3)c3ccccc32)cc1`: the solubility (kinetic) is less than 1 µg/mL.

With `Cc1nn2c(c1-c1ccccc1OCc1ccccc1)N(C(=O)Cc1ccc3c(c1)OCO3)CCC2`, the kinetic solubility is less than 1 µg/mL.

In the case of `Cc1c(-c2cccc(NC(=O)c3ccc(F)c(F)c3)c2)nc2ncccn12`, the kinetic solubility was 7.47 µg/mL (≈ 20.5 µM).

Molecule `Cc1nc([N+](=O)[O-])cn1-c1ccc([N+](=O)[O-])cc1` had a solubility (kinetic) of more than 37 µg/mL.

Consider `COc1ccc(CN2CCc3c(c(=O)n4ncc(C(=O)N5CCN(c6ccccc6OC)CC5)c4n3C)C2)cc1`, for which the solubility (kinetic) was found to be 14.2 µg/mL (≈ 26.1 µM).

As for `CCC(Sc1nc2ccccc2c2nc(CCc3c(C)n[nH]c3C)nn12)C(=O)Nc1ccc(F)cc1` (stereo not given), the kinetic solubility is less than 1 µg/mL.

`CC[C@H]1CN(C)[C@H]2Cc3c([nH]c4ccccc34)C(=O)C[C@H]1[C@H]2C(=O)OC`: the kinetic solubility was more than 52 µg/mL.

In the case of `Cc1ccc(S(=O)(=O)Nc2cnccc2C(=O)Nc2ccc(N3CCOCC3)cc2)cc1`, the solubility (kinetic) was more than 67 µg/mL.

The molecule `COc1cc(Cl)ccc1C(=O)Nc1nc(-c2ccccc2)cs1` showed a kinetic solubility of less than 1 µg/mL.

Molecule `COCCNC(=O)[C@H]1C[C@H](Oc2ccccc2)CN1Cc1ccc2[nH]ccc2c1` came in with a solubility (kinetic) of 17.1 µg/mL (≈ 43.5 µM).

For `COc1cccc(CNc2ccc(S(=O)(=O)Nc3ccc(-c4ccccc4)cc3)cc2)c1O`, the kinetic solubility was less than 1 µg/mL.
